This note sets out measurements from US11793781B2, “Autoimmune disorder treatment using RXR agonists” (Io Therapeutics, Inc., priority 2011, dated 2023).

In experiment [1] the test system is CNS infiltrating leukocytes. The experiment is described as follows: CNS infiltrating cells in EAE B6 mice (FACS). Type of experiment: in vivo, C57BL/6 (B6) mice. Conditions: day 20, versus vehicle control, FIG. 6. The protocol:
To determine whether a RXR agonist can reduce central nervous system (CNS) infiltrating cells, C57BL/6 (B6) mice were treated as described in Example 6. On day 20 after immunization, mice were sacrificed and perfused with phosphate buffered saline (PBS). Brain and spinal cord tissue was isolated, digested with DNase and Liberase DL (Roche Diagnostics, Indianapolis, Ind.) for 30 minutes, and homogenized through 70 micron nylon mesh filters. Resulting cells were placed over a Percoll gradient to remove myelin. The remaining cells (microglia and CNS infiltrating cells) were counted, stained for molecules of interest, and run on a flow cytometer. Based on the frequencies obtained by FACS of these cell populations, total cell numbers of CNS infiltrating leukocytes expressing CD45, including CD4^+ T cells and CD11c^+ CD11b^+ myeloid dendritic cells (DC), were calculated.

Experiment [2] deals with Naive CD4+ CD25− FoxP3− cells. The experiment is described as follows: Th17 cell differentiation conditions: Foxp3 and IL-17A expression. Type of experiment: cell-based, mouse. Conditions: 0, 1, 10, 100 nM, as concentration increased. On the procedure: To determine whether a RXR agonist can regulate T cell differentiation, the ability of an RXR agonist to promote Treg cell differentiation and inhibit Th17 cell differentiation under Th17 cell differentiation conditions was assessed by monitoring Foxp3 and IL-17A expression. Naive CD4^+ CD25^− FoxP3^− cells were purified from a Foxp3-GFP mouse using flow cytometry by sorting and isolating based upon a GFP^− phenotype. […] See, e.g., Elias, et al., Retinoic Acid Inhibits Th17 Polarization and Enhances FoxP3 Expression through a Stat-3/Stat-5 Independent Pathway, Blood 111(3): […] (2008). […] FIG. 2A. […] FIG. 2B.

The test system of experiment [3] is experimental autoimmune encephalomyelitis (EAE). The experiment is described as follows: EAE in SJL mice (PLP peptide). Format: in vivo. The protocol:
To determine whether a RXR agonist can attenuate multiple sclerosis, SJL mice were immunized to induce EAE by s.c. injection at the base of their spine with 200 uL of adjuvant containing 200 ug proteolipid proteins (139-151) (PLP peptide; Peptides International, Louisville, Ky.) and 400 ug of non-viable M. tuberculosis H37 desiccate emulsified in a mixture of incomplete Freund's adjuvant and PBS. Mice were also given 150 ng of pertussis toxin in PBS i.p. on the same day as PLP emulsion injection and 2 days later. […] Mice were scored using the scale described in Example 6.

A further experiment deals with FXR/RXR. The experiment is described as follows: Permissive RXR heterodimer transactivation. Type of experiment: cell-based. To be noted: appropriate receptor and reporter constructs.
Experiment [4] concerns experimental autoimmune encephalomyelitis (EAE). The experiment is described as follows: EAE in C57BL/6 (B6) mice (MOG peptide). Format: in vivo. To be noted: 50 ug i.p. every other day from day 7, FIG. 5. On the procedure: Mice were also given 200 ng of pertussis toxin in PBS administered by inter-peritoneal (i.p.) injection on the same day as MOG emulsion injection (day 0) and 2 days later (day 2). […] Mice were scored using the following scale: 0—Mice have no disease, 1—Mice have distal limp tail or rear leg weakness (paresis), 1.5—Mice have distal limp tail and rear leg weakness, 2—Mice have complete limp tail and rear leg weakness, 2.5—Mice have complete limp tail and weakness in both rear legs, 3—Mice have complete limp tail and paralysis in both rear legs, 3.5—Mice have complete limp tail, paralysis in both rear legs, and forelimb weakness. Mice receiving a score of 3.5 were immediately euthanized.

In another experiment the test system is PPAR/RXR. The experiment is described as follows: Permissive RXR heterodimer transactivation. Format: cell-based. Conditions: appropriate receptor and reporter constructs. From the text: (§1) This difference represents >2,000-fold selectivity for RXRs over RARs in functional transactivation assays. […] FIG. 4. […] In this regard, RXR agonist 194204 is distinct from other RXR agonists.

The next experiment relates to LXR/RXR. The experiment is described as follows: Permissive RXR heterodimer transactivation. Format: cell-based. To be noted: appropriate receptor and reporter constructs.
Source text: as §1

Another experiment concerns RXRs and RARs. The experiment is described as follows: Functional transactivation assays, RXRs compared with RARs. Format: cell-based.
Another experiment addresses T1, RXRα (Homo sapiens, UniProt P19793).
T1 sequence (P19793 1-462): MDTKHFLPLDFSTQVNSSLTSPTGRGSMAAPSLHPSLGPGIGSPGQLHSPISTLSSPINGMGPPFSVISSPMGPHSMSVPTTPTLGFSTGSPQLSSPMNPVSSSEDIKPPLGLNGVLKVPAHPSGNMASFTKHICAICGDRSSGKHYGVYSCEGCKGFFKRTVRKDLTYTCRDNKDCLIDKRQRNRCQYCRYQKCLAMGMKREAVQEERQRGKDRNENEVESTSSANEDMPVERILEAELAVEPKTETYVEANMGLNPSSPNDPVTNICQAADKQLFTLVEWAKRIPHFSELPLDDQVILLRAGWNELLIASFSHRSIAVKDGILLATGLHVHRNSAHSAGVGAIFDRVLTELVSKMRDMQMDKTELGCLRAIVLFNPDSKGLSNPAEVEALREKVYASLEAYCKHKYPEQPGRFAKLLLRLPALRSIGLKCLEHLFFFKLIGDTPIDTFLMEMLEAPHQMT
The experiment is described as follows: RXR homodimer transactivation assay in CV-1 cells (RXRE-tk-Luc). Type of experiment: cell-based. To be noted: 20 hours, luciferase. From the text:
For transactivation assays assessing RXR homodimer signaling, CV-1 cells were transfected with 1) an expression construct including a full length RXRα, RXRβ, or RXRγ; and 2) a rCRBPII/RXRE-tk-Luc reporter construct that included RXR homodimer-specific RXRE/DR1 responsive element linked to a luciferase gene. For transactivation assays assessing RAR/RXR heterodimer signaling, CV-1 cells were transfected with 1) an expression construct comprising a fusion protein including an estrogen receptor (ER) DNA binding domain linked to the ligand binding domain of RARα, RARβ, or RARγ and 2) a ERE-tk-Luc reporter construct that included an estrogen receptor responsive element linked to a luciferase gene. […] Data are mean values±SE from five independent experiments.

The next experiment has as its target T2, RXRγ (Homo sapiens, UniProt P48443).
T2 construct: an expression construct including a full length RXRα, RXRβ, or RXRγ; expressed in transfected cells; host or cells: CV-1 cells
T2 sequence (P48443 1-463): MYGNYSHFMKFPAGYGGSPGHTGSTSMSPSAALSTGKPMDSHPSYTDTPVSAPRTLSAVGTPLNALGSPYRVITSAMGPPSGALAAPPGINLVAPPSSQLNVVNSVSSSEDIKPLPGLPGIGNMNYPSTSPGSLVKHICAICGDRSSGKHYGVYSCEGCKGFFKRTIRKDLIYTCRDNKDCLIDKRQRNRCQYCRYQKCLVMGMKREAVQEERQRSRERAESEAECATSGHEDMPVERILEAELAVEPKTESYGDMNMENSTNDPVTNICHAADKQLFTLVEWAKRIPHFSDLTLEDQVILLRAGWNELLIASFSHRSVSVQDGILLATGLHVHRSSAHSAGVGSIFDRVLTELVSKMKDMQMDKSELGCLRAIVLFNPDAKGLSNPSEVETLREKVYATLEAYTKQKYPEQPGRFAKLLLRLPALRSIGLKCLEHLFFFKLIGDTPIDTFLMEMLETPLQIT
Described as above. Type of experiment: cell-based.

The subject of experiment [5] is Naive CD4+ CD25− FoxP3− cells. The experiment is described as follows: Treg cell differentiation conditions: Foxp3 and α4β7 expression. Type of experiment: cell-based, mouse. The protocol:
To determine whether a RXR agonist can induce Treg cell differentiation, the ability of an RXR agonist to promote Treg cell differentiation under Treg cell differentiation conditions was assessed by monitoring Foxp3 and α4β7 expression. Naive CD4^+ CD25^− FoxP3^− cells were purified from a Foxp3-GFP mouse using flow cytometry by sorting and isolating based upon a GFP^− phenotype. These cells were then cultured under Treg cell differentiation conditions by treating the cells with αCD3 and αCD28 polyclonal antibodies in the presence of IL-2 and TGF-β. […] FIG. 1A. […] FIG. 1B.

[6] abbreviates: 50 ug i.p. every other day from day 7, FIG. 7.

Procedure for RXRs and RARs: To determine whether a RXR agonist can mediate its effects via an RXRα receptor homodimers, RXRβ receptor homodimers, RXRγ receptor homodimers, or any combination thereof, or the corresponding RAR/RXR heterodimers, receptor-mediated transactivation assays were performed. For transactivation assays assessing RXR homodimer signaling, CV-1 cells were transfected with 1) an expression construct including a full length RXRα, RXRβ, or RXRγ; and 2) a rCRBPII/RXRE-tk-Luc reporter construct that included RXR homodimer-specific RXRE/DR1 responsive element linked to a luciferase gene. For transactivation assays assessing RAR/RXR heterodimer signaling, CV-1 cells were transfected with 1) an expression construct comprising a fusion protein including an estrogen receptor (ER) DNA binding domain linked to the ligand binding domain of RARα, RARβ, or RARγ and 2) a ERE-tk-Luc reporter construct that included an estrogen receptor responsive element linked to a luciferase gene. The ER-RAR fusion proteins provided an accurate readout of only the transfected ER-RAR. […] Data are mean values±SE from five independent experiments.
Procedure for RXRγ: To determine whether a RXR agonist can mediate its effects via an RXRα receptor homodimers, RXRβ receptor homodimers, RXRγ receptor homodimers, or any combination thereof, or the corresponding RAR/RXR heterodimers, receptor-mediated transactivation assays were performed. […] Data are mean values±SE from five independent experiments.

On to `CC(/C=C/[C@@H]1C[C@]1(C)c1ccc2c(c1)C(C)(C)CCC2(C)C)=C\C(=O)O` [RXR agonist 194204, 3,7-dimethyl-6(S),7(S)-methano,7-[1,1,4,4-tetramethyl-1,2,3,4-tetrahydronaphth-7-yl]2(E),4(E) heptadienoic acid], for which, in [1], the “infiltration of CD4+ cells into the CNS” value was “significant reduction” and the “infiltration of CD11c+ CD11b+ cells (myeloid DC) into the CNS” value is “significant reduction”. The Foxp3 expression result in experiment [2] (FIG. 2A) is on record as “Foxp3 expression increased”. In experiment [2] (FIG. 2B), the IL-17A expression result was “IL-17A expression decreased”. Besides, in experiment [3] (setting [6]), the “symptoms of EAE (disease severity score)” value is “significantly reduces the symptoms of EAE”; the “time course of efficacy” value was “observed after the second administration (day 8) and maintained throughout the course of the study (day 14)”. Moreover, the “Disease Incidence” value in [3] (50 ug i.p. every other day from day 7, mice affected/group) was 4/6. Also, in [3] (50 ug i.p. every other day from day 7, mice/group), the “Death from Disease” value is on record as 0/6. Also, the “Mean Maximum Score” value in experiment [3] (50 ug i.p. every other day from day 7, scale 0-3.5) came to 1.5 ± 1.4. For the same molecule, the “transactivation of permissive RXR heterodimer FXR/RXR” value with FXR/RXR is reported as “not to transactivate”. For the same molecule, in [4], the “symptoms of EAE (disease severity score)” value is “significantly reduces the symptoms of EAE”; the “time course of efficacy” value was “observed after the first administration (day 7) and maintained throughout the course of the study (day 20)”. The “transactivation of permissive RXR heterodimer PPAR/RXR” value in the experiment with PPAR/RXR was “not to transactivate”. Moreover, the “transactivation of permissive RXR heterodimer LXR/RXR” value with LXR/RXR is “not to transactivate”. Also, in the experiment on RXRs and RARs (FIG. 4), the “more potent in activating RXR receptors rather than RAR receptors” value was > 1,000 fold. Also, the “activity at RARs” value in the experiment with RXRs and RARs (at ≥1 μM) is “minimal activity”. Also, the “Efficacy (% of 1 μM 194204) RXRα” value on RXRα was 100 % of 1 μM 194204. The “Efficacy (% of 1 μM 194204) RXRγ” value on RXRγ is reported as 0.09 ± 0.01 100 % of 1 μM 194204. In addition, the “Foxp3+ T cells induced” value in [5] (Treg conditions (αCD3, αCD28, IL-2, TGF-β), concentrations of 1 nM or higher, FIG. 1A) is about 100%. Moreover, the α4β7 expression result in experiment [5] (Treg conditions, 0.1, 1.0, 10 nM, FIG. 1B) was “induced expression of α4β7”.
